This is an account of results in ChEMBL document CHEMBL1201862, “PubChem BioAssay data set” (2004).

The target of experiment [1] is T1, Streptokinase A (Streptococcus pyogenes serotype M1, UniProt P10520).
T1 sequence (P10520 whole entry): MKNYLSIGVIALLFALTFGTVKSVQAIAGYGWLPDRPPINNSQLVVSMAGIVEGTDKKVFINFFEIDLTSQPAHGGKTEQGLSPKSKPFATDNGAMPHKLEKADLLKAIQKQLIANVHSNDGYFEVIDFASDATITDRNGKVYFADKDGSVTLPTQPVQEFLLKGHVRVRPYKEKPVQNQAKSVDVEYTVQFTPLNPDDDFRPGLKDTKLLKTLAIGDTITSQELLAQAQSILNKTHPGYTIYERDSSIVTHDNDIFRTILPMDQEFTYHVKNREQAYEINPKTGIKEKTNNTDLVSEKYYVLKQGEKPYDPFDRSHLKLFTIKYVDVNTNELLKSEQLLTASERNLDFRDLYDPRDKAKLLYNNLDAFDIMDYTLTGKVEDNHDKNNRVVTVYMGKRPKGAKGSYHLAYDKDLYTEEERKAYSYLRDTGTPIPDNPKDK
In words: viability-normalized secreted streptokinase activity reduction – plasminogen activation absorbance, OD405, dose response (AID 1914).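 Note: secreted streptokinase activity via plasminogen activation per viability signal from cell pellet.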 The experiment is classed as functional, Streptococcus pyogenes M1 GAS.

Experiment [2] has as its system Streptococcus sp. 'group A'. As to the kind of experiment: Streptococcus pyogenes SK(-)GAS viability under kanamycin – luminescence, BacTiterGlo, confirmation, counter-screen for streptokinase expression inhibitor project, dose response (AID 1900). The format is functional, organism-based. Background: Counterscreens check selectivity or assay interference.
Experiment [3] has as its target T2, Apoptotic protease-activating factor 1 (Homo sapiens, UniProt O14727).
T2 sequence (O14727 whole entry): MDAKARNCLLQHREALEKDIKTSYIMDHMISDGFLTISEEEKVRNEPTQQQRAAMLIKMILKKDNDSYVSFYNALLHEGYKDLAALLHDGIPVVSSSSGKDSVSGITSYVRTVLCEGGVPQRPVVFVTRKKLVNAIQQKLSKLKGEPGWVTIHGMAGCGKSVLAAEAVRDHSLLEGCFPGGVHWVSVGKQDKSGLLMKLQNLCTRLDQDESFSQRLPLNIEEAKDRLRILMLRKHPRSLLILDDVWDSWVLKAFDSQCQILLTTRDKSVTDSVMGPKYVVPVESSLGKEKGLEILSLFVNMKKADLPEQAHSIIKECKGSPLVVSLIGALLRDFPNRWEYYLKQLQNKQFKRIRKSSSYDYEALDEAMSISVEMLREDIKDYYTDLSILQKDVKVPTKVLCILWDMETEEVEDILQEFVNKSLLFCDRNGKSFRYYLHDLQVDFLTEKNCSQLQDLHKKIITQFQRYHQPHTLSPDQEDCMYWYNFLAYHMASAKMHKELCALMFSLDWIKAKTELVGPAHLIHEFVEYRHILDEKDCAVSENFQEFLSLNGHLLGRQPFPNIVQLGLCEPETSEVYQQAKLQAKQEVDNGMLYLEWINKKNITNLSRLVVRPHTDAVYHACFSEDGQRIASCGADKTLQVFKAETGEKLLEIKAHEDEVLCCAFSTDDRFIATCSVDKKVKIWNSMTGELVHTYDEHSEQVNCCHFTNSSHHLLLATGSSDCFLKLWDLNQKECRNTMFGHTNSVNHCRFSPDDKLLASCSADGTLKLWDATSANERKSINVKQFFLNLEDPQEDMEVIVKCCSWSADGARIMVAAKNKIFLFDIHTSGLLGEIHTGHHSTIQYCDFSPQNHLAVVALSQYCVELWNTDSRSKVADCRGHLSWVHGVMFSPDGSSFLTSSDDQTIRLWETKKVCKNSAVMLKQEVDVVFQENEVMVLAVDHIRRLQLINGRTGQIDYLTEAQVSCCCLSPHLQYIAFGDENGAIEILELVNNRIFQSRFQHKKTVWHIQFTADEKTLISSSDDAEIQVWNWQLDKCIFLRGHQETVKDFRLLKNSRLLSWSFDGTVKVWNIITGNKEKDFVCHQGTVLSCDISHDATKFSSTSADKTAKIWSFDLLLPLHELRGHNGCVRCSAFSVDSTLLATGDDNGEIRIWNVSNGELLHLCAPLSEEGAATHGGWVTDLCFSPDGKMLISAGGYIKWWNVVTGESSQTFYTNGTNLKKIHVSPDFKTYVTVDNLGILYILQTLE
The format is functional.

Calls of active or inactive are those of the source. Cut-off read from the data, not from the text of the source, for most assays here: actives have a measured EC50 and inactives only a lower limit. A value given as a limit tells only on which side of the number the result lay.

In general, EC50 refers to the concentration needed to bring the measured effect to its halfway point. The term IC50 denotes the point on the concentration scale where inhibition reaches its midpoint. Turning to `Clc1ccc(C2=CSC3=Nc4cccc5cccc(c45)N23)cc1`, the EC50 in experiment [1] is > 150 µM (not active); in experiment [2], 4.17 µM (active). Further, in experiment [3], the IC50 is 17.9 µM (active).
